# Calls of active or inactive are those of the source. The calls are words filed in the database; no cut-off is given here.
# Key:
# [1] = Toxicity in male ICR mouse assessed as change in serum CK-MB level at 100 mg/kg, ip measured after 14 days; type: organism-based; conditions: in vivo, 336 h, time 14 day
# [2] = system: MV4-11; assay: Induction of apoptosis in human MV4-11 cells assessed as viable cells at 30 nM incubated for 24 hrs by Annexin V-FITC/PI dual staining based flow cytometric analysis (reference value: 94.9 %); type: functional; conditions: read-out: Activity
# [3] = molecular target: Protein cereblon/MAP kinase-interacting serine/threonine-protein kinase 2 (Homo sapiens, UniProt Q96SW2+Q9HBH9); assay: PROTAC activity at CRBN/MNK2 in human MV4-11 cells assessed as inhibition of phosphorylated eIF4E level incubated for 24 hrs by immunoblot analysis; type: cell-based
# [4] = Toxicity in nude female NSG mouse xenografted with human MV4-11 cells assessed as change in serum AST level at 20 mg/kg, ip qd administrated for 16 days; type: organism-based; conditions: in vivo, 384 h, time 16 day
# [5] = system: MDA-MB-231; assay: Anti-proliferative activity against human MDA-MB-231 cells measured after 96 hrs by CCK8 assay; conditions: MDA-MB-231, 96 h
# [6] = system: MV4-11; assay: Upregulation of ubiquitin-mediated proteolysis pathway related protein expression in human MV4-11 cells by KEGG analysis; type: functional, cell-based
# [7] = AUC (0 to t) in male Sprague-Dawley rat at 5 mg/kg, ip measured up to 24 hrs by LC-MS analysis; type: ADME, organism-based; conditions: in vivo
# [8] = Half life in male Sprague-Dawley rat at 1 mg/kg, iv measured up to 24 hrs by LC-MS analysis; type: ADME, organism-based; conditions: in vivo
# [9] = system: MV4-11; assay: Induction of cell cycle arrest in human MV4-11 cells assessed as decrease in accumulation of cells at S phase incubated for 24 hrs by PI staining based flow cytometric analysis; type: functional; conditions: dose 30-300 µM
# [10] = system: MV4-11; assay: Effect on IKZF3 expression in human MV4-11 cells at 10 to 1000 nM incubated for 24 hrs by immunoblot analysis; type: functional, cell-based; conditions: dose 10-1000 nM
# [11] = Toxicity in male ICR mouse assessed as change in serum uric acid level at 100 mg/kg, ip measured after 14 days; type: organism-based; conditions: in vivo, 336 h, time 14 day
# [12] = system: MV4-11; assay: Upregulation of protein translation pathway related protein expression in human MV4-11 cells by GO analysis; type: functional, cell-based
# [13] = Toxicity in male ICR mouse assessed as histopathological change in lung at 100 mg/kg, ip measured after 14 days by hematoxylin and eosin staining based analysis; type: organism-based; conditions: in vivo, 336 h, time 14 day
# [14] = Hepatotoxicity in nude female NSG mouse xenografted with human MV4-11 cells assessed as change in serum ALT level at 20 mg/kg, ip qd administrated for 16 days; type: toxicity, organism-based; conditions: in vivo, 384 h, time 16 day
# [15] = Toxicity in nude female NSG mouse xenografted with human MV4-11 cells assessed as change in serum BUN level at 20 mg/kg, ip qd administrated for 16 days; type: organism-based; conditions: in vivo, 384 h, time 16 day
# [16] = system: MV4-11; assay: Downregulation of SBNO2 expression level in human MV4-11 cells at 300 nM incubated for 24 hrs by DIA-based quantitative proteomics analysis; type: functional, cell-based
# [17] = system: MM1.S; assay: Anti-proliferative activity against human MM1.S cells measured after 120 hrs by CCK8 assay
# [18] = Half life in male Sprague-Dawley rat at 20 mg/kg, po measured up to 24 hrs by LC-MS analysis; type: ADME, organism-based; conditions: in vivo
# [19] = system: MV4-11; assay: Induction of apoptosis in human MV4-11 cells assessed as necrotic cells at 100 nM incubated for 24 hrs by Annexin V-FITC/PI dual staining based flow cytometric analysis (reference value: 0.16 %); type: functional
# [20] = system: MV4-11; assay: Induction of apoptosis in human MV4-11 cells assessed as viable cells at 300 nM incubated for 24 hrs by Annexin V-FITC/PI dual staining based flow cytometric analysis (reference value: 94.9 %); type: functional; conditions: read-out: Activity
# [21] = system: MV4-11; assay: Induction of apoptosis in human MV4-11 cells assessed as late apoptotic cells at 300 nM incubated for 24 hrs by Annexin V-FITC/PI dual staining based flow cytometric analysis (reference value: 1.48 %); type: functional
# [22] = system: MV4-11; assay: Upregulation of RNA transport pathways related protein expression in human MV4-11 cells by GO analysis; type: functional, cell-based
# [23] = system: MV4-11; assay: Induction of apoptosis in human MV4-11 cells assessed as viable cells at 100 nM incubated for 24 hrs by Annexin V-FITC/PI dual staining based flow cytometric analysis (reference value: 94.9 %); type: functional; conditions: read-out: Activity
# [24] = Toxicity in nude female NSG mouse xenografted with human MV4-11 cells assessed as change in body weight at 20 mg/kg, ip qd administrated for 16 days; type: organism-based; conditions: in vivo, 384 h, time 16 day
# [25] = system: MV4-11; assay: Induction of cell cycle arrest in human MV4-11 cells assessed as increase in accumulation of cells at G1 phase at 30 to […] incubated for 24 hrs by PI staining based flow cytometric analysis; type: functional; conditions: dose lower 30.0 µM
# [26] = system: MV4-11; assay: Induction of apoptosis in human MV4-11 cells assessed as necrotic cells at 300 nM incubated for 24 hrs by Annexin V-FITC/PI dual staining based flow cytometric analysis (reference value: 0.16 %); type: functional
# [27] = system: MV4-11; assay: Induction of apoptosis in human MV4-11 cells assessed as late apoptotic cells at 100 nM incubated for 24 hrs by Annexin V-FITC/PI dual staining based flow cytometric analysis (reference value: 1.48 %); type: functional
# [28] = system: MV4-11; assay: Anti-proliferative activity against human MV4-11 cells measured after 72 hrs by CCK8 assay; conditions: MV4-11, 72 h
# [29] = Toxicity in male ICR mouse assessed as histopathological change in kidney at 100 mg/kg, ip measured after 14 days by hematoxylin and eosin staining based analysis; type: organism-based; conditions: in vivo, 336 h, time 14 day
# [30] = Cmax in male Sprague-Dawley rat at 5 mg/kg, ip measured up to 24 hrs by LC-MS analysis; type: ADME, organism-based; conditions: in vivo
# [31] = system: MOLM-13; assay: Anti-proliferative activity against human MOLM-13 cells measured after 72 hrs by CCK8 assay; conditions: MOLM-13, 72 h
# [32] = system: MV4-11; assay: Upregulation of PI3K-Akt pathway related protein expression in human MV4-11 cells by KEGG analysis; type: functional, cell-based
# [33] = system: MV4-11; assay: Induction of MNK2 degradation in human MV4-11 cells at 10 to 1000 nM incubated for 24 hrs by immunoblot analysis; type: cell-based; conditions: dose 10-1000 nM
# [34] = Clearance in male Sprague-Dawley rat at 5 mg/kg, ip measured up to 24 hrs by LC-MS analysis; type: ADME, organism-based; conditions: in vivo
# [35] = system: MV4-11; assay: Effect on MNK2 expression level in human MV4-11 cells at 300 nM incubated for 24 hrs by DIA-based quantitative proteomics analysis; type: functional, cell-based
# [36] = system: MV4-11; assay: Upregulation of PI3K-Akt pathway related protein expression in human MV4-11 cells by GO analysis; type: functional, cell-based
# [37] = Toxicity in male ICR mouse assessed as change in serum TBIL level at 100 mg/kg, ip measured after 14 days; type: organism-based; conditions: in vivo, 336 h, time 14 day
# [38] = system: MV4-11; assay: Upregulation of ubiquitin-mediated protein degradation pathway related protein expression in human MV4-11 cells by GO analysis; type: functional, cell-based
# [39] = Toxicity in male ICR mouse assessed as change in serum AST level at 100 mg/kg, ip measured after 14 days; type: organism-based; conditions: in vivo, 336 h, time 14 day
# [40] = system: MV4-11; assay: Downregulation of C9orf40 expression level in human MV4-11 cells at 300 nM incubated for 24 hrs by DIA-based quantitative proteomics analysis; type: functional, cell-based
# Sequence of Protein cereblon/MAP kinase-interacting serine/threonine-protein kinase 2 (Q9HBH9 whole entry): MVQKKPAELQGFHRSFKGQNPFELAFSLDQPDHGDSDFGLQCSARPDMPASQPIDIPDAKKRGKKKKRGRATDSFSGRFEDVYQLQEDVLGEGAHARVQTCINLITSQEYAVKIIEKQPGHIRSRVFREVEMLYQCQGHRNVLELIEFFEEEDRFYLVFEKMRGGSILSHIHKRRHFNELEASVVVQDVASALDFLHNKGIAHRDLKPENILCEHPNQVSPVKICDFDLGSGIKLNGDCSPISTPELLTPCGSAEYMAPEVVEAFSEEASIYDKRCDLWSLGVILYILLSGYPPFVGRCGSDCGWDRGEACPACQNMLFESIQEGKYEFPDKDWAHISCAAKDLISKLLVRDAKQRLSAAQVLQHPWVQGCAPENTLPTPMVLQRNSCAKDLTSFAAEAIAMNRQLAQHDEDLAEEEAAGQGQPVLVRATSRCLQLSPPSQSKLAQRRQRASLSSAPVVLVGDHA
# Sequence of Protein cereblon/MAP kinase-interacting serine/threonine-protein kinase 2 (Q96SW2 whole entry): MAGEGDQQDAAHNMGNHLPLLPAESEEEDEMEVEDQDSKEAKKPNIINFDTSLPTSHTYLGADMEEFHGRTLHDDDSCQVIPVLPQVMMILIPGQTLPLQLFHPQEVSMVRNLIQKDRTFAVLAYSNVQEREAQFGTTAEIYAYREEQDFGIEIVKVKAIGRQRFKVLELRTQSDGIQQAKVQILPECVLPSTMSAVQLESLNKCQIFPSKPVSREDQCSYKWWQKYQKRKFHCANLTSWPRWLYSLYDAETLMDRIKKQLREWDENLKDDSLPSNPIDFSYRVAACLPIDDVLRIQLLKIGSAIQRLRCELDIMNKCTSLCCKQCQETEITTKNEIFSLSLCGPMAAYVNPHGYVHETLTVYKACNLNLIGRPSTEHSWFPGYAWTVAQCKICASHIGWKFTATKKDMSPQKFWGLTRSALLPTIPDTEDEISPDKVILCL
smiles,measurement,setting,value
O=C1CCC(N2Cc3c(NC(=O)CCCCCC(=O)N4CCC(C(=O)Nc5ncc(-c6ccccc6)s5)CC4)cccc3C2=O)C(=O)N1 (stereo not given),Activity,[1],Non-toxic
same,viability at 0.03 µM,[2],85.8%
same,IC50,[3],22.1 nM
same,Activity,[4],Non-toxic
same,IC50,[5],2060 nM
same,Activity,[6],Active
same,AUC(0-t) at 24 h,[7],9630 ng·h/mL
same,half-life,[8],4.3 h
same,Activity,[9],Dose-dependent-effect
same,Activity,[10],No effect
same,Activity,[11],Non-toxic
same,Activity,[12],Active
same,Activity,[13],Non-toxic
same,Activity,[14],Non-toxic
same,Activity,[15],Non-toxic
same,Activity,[16],Active
same,IC50,[17],240 nM
same,half-life,[18],7.1 h
same,Activity,[19],0.69%
same,viability at 0.3 µM,[20],28%
same,Activity,[21],42.1%
same,Activity,[22],Active
same,viability at 0.1 µM,[23],71.5%
same,Activity,[24],Non-toxic
same,Activity,[25],Active
same,Activity,[26],1.36%
same,Activity,[27],13.7%
same,IC50,[28],45 nM
same,Activity,[29],Non-toxic
same,Cmax,[30],1970 ng/mL
same,IC50,[31],610 nM
same,Activity,[32],Active
same,Activity,[33],inactive
same,CL/F,[34],8.75 mL/min/kg
same,Activity,[35],No effect
same,Activity,[36],Active
same,Activity,[37],Non-toxic
same,Activity,[38],Active
same,Activity,[39],Non-toxic
same,Activity,[40],Active

# Source: ChEMBL document CHEMBL6177991, “Discovery of P11-2: A Potent First-in-Class MNK1-Targeting PROTAC Degrader for the Treatment of Cancer” (J Med Chem, 2025)
